Test system: Wild-type nematodes
Assay: Nematode lifespan/survival in microfluidic chips
Type: in vivo
Details: versus control, FIG. 4
Description: EXAMPLE 8—Animal Studies: A nematode animal model was used to evaluate lifespan/survival and energy/activity. Wild-type nematodes were loaded into microfluidic chips and were fed […] E. coli OP50 in NGM buffer food source. The methods have been previously described. Nematode lifespan was measured by survival at standard 18 days, while nematode activity was measured at an optimum 15 days using a visual score. Dosing of 2:1 taurine to malic acid molar ratio composition (composition #4, Example 1) was made using the methodology described previously was at 200 micrograms/ml/day, with the solid composition being dissolved in the aqueous feed. This is equivalent to a human dose of 5 grams per day for these animals. The 5 gram per day human dose equivalent represents a dose of 3.26 grams of taurine and 1.74 grams of malic acid (2:1 molar ratio). The results were compared with taurine alone (human equivalent dose 3.26 grams), and malic acid alone (1.74 grams malic acid).
Eighteen days is the typical survival time for nematodes. Eighteen days may be considered “old-age” for these animals. […] This unexpected synergistic effect has not been previously observed. […] Specific energy/activity levels of the neamtodes was measured at an optimum 15 days of life (which may be considered “middle-age”).

| SMILES | nematode survival at 18 days (taurine alone, human equivalent dose 3.26 grams) | nematode survival at 18 days (malic acid alone, human equivalent dose 1.74 grams) |
| --- | --- | --- |
| NCCS(=O)(=O)O [taurine, 2-aminoethanesulfonic acid] | did not improve survival times versus control |  |
| O=C(O)CC(O)C(=O)O (centres unmarked) [malic acid] |  | did not improve survival times versus control |

Source: patent publication US20250120924A1, “COMPOSITIONS OF TAURINE AND MALIC ACID AND METHODS OF MAKING THE COMPOSITIONS” (NutriScience Innovations LLC, priority 2023, published 2025)
